In patent publication US20110201577A1 (published 2011) one finds melting point data, which are given here for 12 compounds.

Usually melting point stands for the temperature of the solid-liquid transition.

The compound `Cc1ccc(S(=O)(=O)N[C@H]2[C@@H]3OC(C)(C)O[C@@H]3C(Br)=C[C@H]2NC(=O)OC(C)(C)C)cc1` displayed a melting point of 153 to 154 °C. The same measure for `CCOC(=O)C1=C[C@@H](OS(C)(=O)=O)[C@@H](NC(C)=O)[C@@H]2OC(C)(C)O[C@H]12`: 163 to 165 °C.

`CCOC(=O)C1C[C@@H](O)[C@@H](NC(C)=O)[C@@H]2OC(C)(C)O[C@H]12` (stereo partly drawn) displayed a melting point of 156 to 158 °C. The same measure for `CCOC(=O)[C@@]12C=C[C@H]([C@@H]3OC(C)(C)O[C@@H]31)N(C(C)=O)O2`: 89 to 90 °C. Regarding `CCOC(=O)C1=C[C@@H]2[C@H]([C@@H]3OC(C)(C)O[C@H]13)N2S(=O)(=O)c1ccc(C)cc1` (stereo partly drawn), the melting point is 106 to 107 °C. The same measure for `CCOC(=O)C1=C[C@@H](OC(CC)CC)[C@H](NC(C)=O)[C@H](O)[C@@H]1O` (stereo in doubt): 154 °C; for `CCOC(=O)C1C[C@@H](OS(C)(=O)=O)[C@@H](NC(C)=O)[C@@H]2OC(C)(C)O[C@H]12` (stereo partly drawn): 101 to 102 °C. The same measure for `CCOC(=O)C1=C[C@@H](OC(CC)CC)[C@H](NC(C)=O)[C@@H]2OC(C)(C)O[C@H]12`: 112 to 115 °C; for `CC(=O)N[C@H]1C=C(Br)[C@H]2OC(C)(C)O[C@H]2[C@@H]1Br`: 181 °C; for `CC(=O)N1[C@@H]2[C@@H]3OC(C)(C)O[C@@H]3C(Br)=C[C@@H]21`: 128 °C. The same measure for `Cc1ccc(S(=O)(=O)N[C@H]2[C@@H]3OC(C)(C)O[C@@H]3C(Br)=C[C@H]2N=[N+]=[N-])cc1`: 119 to 120 °C; for `CCOC(=O)C1=CC=C[C@H](O)[C@@H]1O`: 48 °C.
